Reference: US7737128B2, “Pyrimidines, such as uridine, in treatments for patients with bipolar disorder” (The McLean Hospital Corporation, priority 2004, dated 2010)
Where two headings read alike, the source gives them in different places.

Legend:
blood lactate levels = test: Plasma lactate elevation after oral gavage (stress response) during repeat dose toxicology study; format: in vivo, rats; conditions: rat plasma lactate
in vivo = conditions: both sexes, Crl: CD (SD)IGS BR, rat, po
Protocol: RG2133 has been tested in a repeat dose rodent toxicity and toxicokinetic study. Three groups of ten male and ten female rats (Crl: CD® (SD)IGS BR strain) received RG2133 orally, by gavage, at dosages of 300, 1000, or 2000 mg/kg/day (administered as 150, 500, or 1000 mg/kg b.i.d.) in aqueous 1% carboxymethylcellulose with methyl paraben (at 1.8 g/l) and propyl paraben (at 0.2 g/l) for four weeks. Animals were examined by observation and lab analysis of blood and urine for evidence of toxicity, and results are shown in Table 1. Tissues were examined microscopically for evidence of drug related toxicity. […] The no-observed-adverse-effect-level (NOAEL) was considered to be 2000 mg/kg/day (1000 mg/kg b.i.d.).

[1] = test system: patients with bipolar disorder; test: Adverse events in the 6-week patient study; format: in vivo, human
From the text: The total number of adverse events is reported by the number and percentage of subjects experiencing each adverse event. If a subject reported the same adverse event over the course of the study, that event was counted once.
During the course of the 6-week study, there were some reported side effects to the medication. 1 subject reported stomach cramps, 1 reported nausea, 4 reported decreased appetite, 3 reported an increase in constipation, 4 reported diarrhea, 1 reported muscle cramps, 2 reported headaches, 1 reported fatigue, 2 reported problems with sleeping, 2 reported increased flatulence, and 1 reported a decrease in libido. In addition, one subject reported changes in their vision that affected their depth perception. […] The subject independently decided to increase their dose back to its original amount in response to their manic reaction to the decreased dose. Due to this protocol deviation, and the subject's manic break, the subject was terminated from the study.

[2] = metabolites, not the prodrug, are observed in blood; cited from earlier work
[3] = test system: patients with bipolar disorder; test: Phase I 6-week open-label clinical trial in outpatients with bipolar disorder (rating scales, patient histories)
From the text: The new methods are based on a Phase I open-label clinical trial of RG2133, a prodrug of uridine, designed to assess the impact of uridine in patients with bipolar disorder. […] The trial assessed the impact of daily, oral administration of escalating doses of RG2133 over a 6 week period on the symptoms associated with bipolar disorder, which are not adequately treated with existing drugs including SSRIs such as Prozac® or Zoloft®. The trial included 11 patients.
Outpatients with bipolar disorder were recruited for this 6-week open-label study. Patients' daily dose amounts were divided into three daily doses. Subjects received an initial RG2133 dose of 6 g/day. […] Subjects were monitored for changes in mood using standard rating scales. The subjects' physical status was followed clinically and with standard laboratory measures to monitor for any adverse effects and/or toxicity.
During the baseline visit, a detailed psychiatric and medical history was obtained, and the following standard rating scales were performed: Structured Clinical Interview for DSM-IV (SCID) for diagnosis, Young Mania Rating Scale (YMRS), Montgomery-Asberg Depression rating Scale (MADRS), the Hamilton Anxiety Scale (HAMA), Clinical Global Impression scale (CGI), the Global Assessment of Function (GAF) scale, quality of life scale (SF-36), as well as a brief adverse-effect rating scale.
After the baseline evaluation, patients returned for office visits at weeks 1, 2, 3, 4, and 6. The same rating scales were performed at each follow-up office visit, except for the SCID. Instead of the full SCID at the follow-up visits, only the SCID screening questions for mania and depression were performed to aid in the determination of syndromic recovery or recurrence. In addition, patients maintained a daily Mood Diary, which was reviewed at each study visit to elicit symptom recall. Routine clinical and laboratory evaluations of each patient's physical status occurred at baseline and at regular intervals. Subjects were monitored for changes in mood using standard rating scales. The subjects' physical status was followed clinically and with standard laboratory measures to monitor for any adverse effects and/or toxicity.
During the study patients were evaluated using the Montgomery-Asberg Depression Rating Scale (MADRS). This scale measures the effect of treatment on depression severity relative to a baseline assessment before treatment. The MADRS measures the severity of a number of symptoms on a scale from 0 to 60, including mood and sadness, tension, sleep, appetite, energy, concentration, suicidal ideation, and restlessness. Increasing scores reflect a greater severity of depression. Scores of 15-25 on the MADRS scale indicate moderate depression. Scores above 25 indicate clinically severe depression.
During the study patients were also evaluated using the Young Mania Rating Scale (YMRS). This scale assesses the severity of mania in patients already diagnosed with mania based on a personal interview. Scores of 1 to 12 are not considered to be suffering from mania, whereas a score of 13 indicates minimal mania. Increasing scores to 44, indicate progressively severe mania.
During the study patients were also evaluated using Clinical Global Impression (CGI) scale. A clinician rated the severity of the patient's illness relative to the clinician's past experience with patients with the same diagnosis. At the outset of the study a clinician created a baseline single item score on a 7 point scale from 1 (‘normal’, not ill) to 7 (extremely ill). CGI was then used to track the clinical distance between a patient's individual's current condition and his or her baseline condition at the start of treatment.
During the study patients were evaluated using Global Assessment of Functioning (GAF), which is a modified version of the Global Assessment Scale (GAS).

fluorouracil toxicity = conditions: cited from earlier work
[4] = oral, cited from earlier work
[5] = in vivo; cited from earlier work
[6] = uridine infusion, cited from earlier work
[7] = cited from earlier work
[8] = bipolar patients, daily oral escalating doses, 6 weeks

CC(=O)OC[C@H]1O[C@@H](n2ccc(=O)[nH]c2=O)[C@H](OC(C)=O)[C@@H]1OC(C)=O [RG2133, 2′,3′,5′-tri-O-acetyluridine]
Effect on lactate level relative to normal baseline value (2.4 mM) (blood lactate levels): did not reduce the lactate level below the normal baseline value
NOAEL at 28 days (in vivo): 2000 mg/kg/day
Subjects reporting a decrease in libido ([1]; 6-week study): 1
Subjects reporting an increase in constipation ([1]; 6-week study): 3
Subjects reporting changes in vision that affected depth perception ([1]; 6-week study): one
Subjects reporting decreased appetite ([1]; 6-week study): 4
Subjects reporting diarrhea ([1]; 6-week study): 4
Subjects reporting fatigue ([1]; 6-week study): 1
Subjects reporting headaches ([1]; 6-week study): 2
Subjects reporting increased flatulence ([1]; 6-week study): 2
Subjects reporting muscle cramps ([1]; 6-week study): 1
Subjects reporting nausea ([1]; 6-week study): 1
Subjects reporting problems with sleeping ([1]; 6-week study): 2
Subjects reporting stomach cramps ([1]; 6-week study): 1
Subjects reporting weaker vision ([1]; 6-week study): Another subject
Subjects reporting a manic episode ([1]; week 3, after reducing the dose): One
Metabolism of enteral dosages [2]: rapidly metabolized to uridine and uracil
Individual patient: mania-type event ([3]; Patient #3, bipolar II, on antidepressant, 12 g/day): slight hypomania at week three
Individual patient: reported mood ([3]; Patient #4, bipolar I, on antidepressant, 6 to 12 g/day): feeling stable
Individual patient: mood at end of study ([3]; Patient #4, week six): mood deteriorated at week six
Individual patient: mania-type event ([3]; Patient #4, week three): some hypomania at week three
Individual patient: reported mood ([3]; Patient #5, bipolar I, no antidepressant, 6 g/day): significant change in mood at week one
Individual patient: adverse effect ([3]; Patient #6): some eye pain
Individual patient: reported mood ([3]; Patient #6, no antidepressant, 6 g/day): feeling significantly better than they had in two years
Individual patient: reported mood ([3]; Patient #7, bipolar I, on antidepressant, 6 to 18 g/day): no change in mood
Individual patient: adverse event ([3]; Patient #11): severe bout of colitis
Individual patient: bipolar symptoms ([3]; Patient #11, bipolar II, on antidepressant, 12 g/day): complete remission at week four
Individual patient: adverse effect ([3]; Patient #13): slight change in depth perception leading to two falls
Individual patient: reported mood ([3]; Patient #13, bipolar I, no antidepressant, 6 to 9 g/day): feeling less depressed and more hopeful
Individual patient: complaints ([3]; Patient #15, after three weeks): dizziness spells, constipation, and a reported manic episode
Individual patient: reported mood ([3]; Patient #15, bipolar II, no antidepressant, 6 to 12 g/day): feeling less volatile and fewer mood swings
Individual patient: complaints ([3]; Patient #16): loose stools and increased flatulence
Individual patient: reported mood ([3]; Patient #16, bipolar II, on antidepressant, 6 to 12 g/day): no change in mood
Individual patient: complaints ([3]; Patient #17): loose stools and increased flatulence
Individual patient: reported mood ([3]; Patient #17, bipolar II, on antidepressant, 6 to 12 g/day): no change in mood
Average GAF score ([3]; after week four (FIG. 4)): declined to a level slightly above the initial GAF score
Average GAF score ([3]; beginning of the study to week four (FIG. 4)): improved slightly
Average MADRS scores ([3]; between week three and week six (FIG. 1)): rose slightly
Induction of mania [3, 8]: did not induce mania
Safety of administration [3, 8]: safe
Average female CGI scores ([3]; course of the study relative to initial score, unlike male scores (FIG. 7)): improved
Averaged YMRS scores ([3]; during the course of the study (FIG. 2)): slight decrease
Average HAM-A score ([3]; during the course of the study (FIG. 5)): went down slightly
Female YMRS scores vs initial baseline ([3]; during the study (FIG. 6)): did not increase above the initial baseline score
Average CGI score ([3]; end of the study vs baseline (FIG. 3)): somewhat above baseline
Average MADRS scores ([3]; first three weeks of treatment (FIG. 1)): slight decrease
Average YMRS, female patients ([3]; first three weeks, female vs male (FIG. 6)): declined slightly more than males
Average CGI scores, patients not taking antidepressant ([3]; vs patients on antidepressant medication (FIG. 8)): faster decline
CGI ([3]; weeks one to three (FIG. 3)): improved slightly
CGI ([3]; weeks three to six (FIG. 3)): deteriorated slightly
Effect on patients' depression (MADRS) ([3]; whole study): did not significantly worsen patients' depression
Effect on hematologic toxicities associated with fluorouracil (fluorouracil toxicity; 6 g/dose every 6 hours): reduction in hematologic toxicities
Adverse effect seen (fluorouracil toxicity; cancer patients, toxicity evaluation equivocal because of cancer and fluorouracil toxicities): Diarrhea
peak blood uridine levels (fluorouracil toxicity; suspension and tablet forms, 6 g/dose every 6 hours for 9 doses): 167 µM

O=c1ccn([C@@H]2O[C@H](CO)[C@@H](O)[C@H]2O)c(=O)[nH]1 [uridine]
Reported effects ([4]; 10 or 12 g/m^2): cramps and diarrhea
maximum tolerated dose without side effects ([4]; multiple dosing every 6 hours): 5 g/m^2
Reported effects ([4]; repeat doses every 6 hours of 8 g/m^2): diarrhea
maximum tolerated dose without side effects ([4]; single dose): 10 g/m^2
Bioavailability [4]: 5.8-9.9%
Doses at which no toxicity was observed [4]: ≤ 8 g/m^2
peak plasma levels of uridine [4]: 80 µM
volume distribution [5]: around 0.634 liters/kg
Plasma concentrations above baseline values ([6]; baseline 3 μM): > 100 fold
Observed side effect [6]: fever
Effect of higher dosages ([7]; above 1000 mg/kg/day, some patients): mild diarrhea
Dosages with no known toxic effects ([7]; pure uridine, long-term experience): up to 1000 mg/kg/day
